From ChEMBL document CHEMBL5727727, “(Aza)pyridopyrazolopyrimidinones and indazolopyrimidinones and their use” (2020)

Experiment: Plasma-Based Clot Lysis Assay: The clot-lysis test system configures the kinetics of clot formation and degradation in vitro and allows quantifying modulation of the process by selected test compounds.The test compounds were dissolved in 1% acetic acid and further complemented with an equal volume of DMSO. The resulting stock solutions were serially diluted in 0.5% acetic acid/50% DMSO. 1 μL aliquots of these solutions were placed into 384 well microplates (Greiner, black, transparent bottom), followed by 30 μL of diluted human citrated plasma (platelet-poor, final concentration: 5%; supplemented with fibrinogen, final concentration: 3 μM; dilution buffer: 20 mM HEPES, 150 mM NaCl, 0.01% Brij (pH 7)). The reactions were started by addition of 20 μL of CaCl2 (final concentration: 10 mM), and tPA (tissue plasminogen activator, final concentration: 0.2 nM) in dilution buffer, followed by an additional volume of 20 μL dilution buffer for improved mixing. The reactions were incubated at 37° C. Clot formation and degradation was monitored spectrophotometrically by kinetic optical density measurements at 405 nm. IC50 values were determined by comparing the resulting time courses with the time course of a blank control reaction.

| IC50 | SMILES |
| --- | --- |
| 100 nM | O=c1cc(C2CCNCC2)n2nc3cncc(Br)c3c2[nH]1 |
| 35 nM | Nc1cccc2nn3c(C4CCNCC4)cc(=O)[nH]c3c12 |
| 21 nM | O=c1cc(C2CCNCC2)n2nc3cc(F)cnc3c2[nH]1 |
